Reference: US11370774B2, “Substituted benzofuran, benzopyrrole, benzothiophene, and structurally related complement inhibitors” (BioCryst Pharmaceuticals, Inc., priority 2018, dated 2022)

target: Factor D (Homo sapiens (Human), UniProt P00746); assay: Factor D esterolytic assay (Z-Lys-SBzl substrate, DTNB, 405 nm); type: biochemical; settings: Z-Lys-SBzl 1.29 mM, pH 7.5, 10% DMSO, tested a minimum of three times, read-out: Measured Ki (IC50) Value for Compounds: IC50
In short: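 Human Factor D ([…]) with 1.29 mM Z-Lys-SBzl in 100 mM HEPES, 500 mM NaCl, pH 7.5, 10% DMSO; substrate added immediately or after room-temperature preincubation. Released thiol reacted with DTNB, rate followed at 405 nm for 600 sec, 690 nm background subtracted. IC50 from percent inhibition versus uninhibited rate, n≥3.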

Factor D, sequence (P00746 26-253): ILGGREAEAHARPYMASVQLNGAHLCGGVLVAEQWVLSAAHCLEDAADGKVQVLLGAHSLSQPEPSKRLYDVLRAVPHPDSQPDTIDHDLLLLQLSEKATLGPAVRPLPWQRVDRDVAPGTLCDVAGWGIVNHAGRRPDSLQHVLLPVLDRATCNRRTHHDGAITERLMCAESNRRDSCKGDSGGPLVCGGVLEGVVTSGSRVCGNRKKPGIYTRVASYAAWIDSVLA

SMILES	IC50 [µM]
CC(C)n1ccc2c(-c3cccc(CN)c3F)cc(COc3ccccc3CC(=O)O)cc21 [Compound 111b, 2-(2-((4-(3-(aminomethyl)-2-fluorophenyl)-1-isopropyl-1H-indol-6-yl)methoxy)phenyl)acetic acid]	< 1
Cc1cc2cc(COc3ccccc3CC(=O)O)cc(-c3ccnc(CN)c3)c2o1 [Compound 112c, 2-(2-((7-(2-(aminomethyl)pyridin-4-yl)-2-methylbenzofuran-5-yl)methoxy)phenyl)acetic acid]	< 1
Cc1cc2cc(COc3ccccc3CC(=O)O)cc(-c3ccnc(CN)c3F)c2o1 [Compound 113c, 2-(2-((7-(2-(aminomethyl)-3-fluoropyridin-4-yl)-2-methylbenzofuran-5-yl)methoxy)phenyl)acetic acid]	< 1
NCc1cccc(-c2cc(COc3ccccc3CC(=O)O)cc3c(N)noc23)c1 [Compound 114j, 2-(2-((3-amino-7-(3-(aminomethyl)phenyl)benzo[d]isoxazol-5-yl)methoxy)phenyl)acetic acid]	< 1
NCc1cccc(-c2cc(COc3ccccc3CC(=O)O)cc3occc23)c1 [Compound 115f, 2-(2-((4-(3-(aminomethyl)phenyl)benzofuran-6-yl)methoxy)phenyl)acetic acid]	< 1
NCc1cccc(-c2cc(COc3ccccc3CC(=O)O)cc3sccc23)c1 [Compound 116f, 2-(2-((4-(3-(aminomethyl)phenyl)benzo[b]thiophen-6-yl)methoxy)phenyl)acetic acid]	< 1
NCc1cccc(-c2cc(COc3ccccc3CC(=O)O)cc3sccc23)c1F [Compound 117b, 2-(2-((4-(3-(aminomethyl)-2-fluorophenyl)benzo[b]thiophen-6-yl)methoxy)phenyl)acetic acid]	< 1
CC(C)n1ccc2c(-c3ccnc(CN)c3)cc(COc3ccccc3CC(=O)O)cc21 [Compound 118c, 2-(2-((4-(2-(aminomethyl)pyridin-4-yl)-1-isopropyl-1H-indol-6-yl)methoxy)phenyl)acetic acid]	< 1
NCc1cccc(-c2cc(COc3ccccc3CC(=O)O)nc3ccoc23)c1 [Compound 119e, 2-(2-((7-(3-(aminomethyl)phenyl)furo[3,2-b]pyridin-5-yl)methoxy)phenyl)acetic acid]	< 1
COCc1cc2cc(COc3ccccc3CC(=O)O)cc(-c3ccnc(CN)c3F)c2o1 [Compound 120c, 2-(2-((7-(2-(aminomethyl)-3-fluoropyridin-4-yl)-2-(methoxymethyl)benzofuran-5-yl)methoxy)phenyl)acetic acid]	< 1
CC(C)n1ccc2c(-c3ccnc(CN)c3F)cc(COc3ccccc3CC(=O)O)cc21 [Compound 121b, 2-(2-((4-(2-(aminomethyl)-3-fluoropyridin-4-yl)-1-isopropyl-1H-indol-6-yl)methoxy)phenyl)acetic acid]	< 1
NCc1cccc(-c2cc(COc3ccccc3CC(=O)O)cc3occc23)c1F [Compound 122b, 2-(2-((4-(3-(aminomethyl)-2-fluorophenyl)benzofuran-6-yl)methoxy)phenyl)acetic acid]	< 1
NCc1cc(-c2cc(COc3ccccc3CC(=O)O)cc3occc23)ccn1 [Compound 123d, 2-(2-((4-(2-(aminomethyl)pyridin-4-yl)benzofuran-6-yl)methoxy)phenyl)acetic acid]	< 1
NCc1cccc(-c2cc(COc3ccccc3CC(=O)O)cc3[nH]ncc23)c1F [Compound 124g, 2-(2-((4-(3-(aminomethyl)-2-fluorophenyl)-1H-indazol-6-yl)methoxy)phenyl)acetic acid]	< 1
NCc1cccc(-c2cc(C(=O)Nc3ccccc3CC(=O)O)cn3ccnc23)c1 [Compound 125c, 2-(2-(8-(3-(aminomethyl)phenyl)imidazo[1,2-a]pyridine-6-carboxamido)phenyl)acetic acid]	> 10
NCc1cccc(-c2cc(COc3ccccc3CC(=O)O)cc3c2cnn3CC2CC2)c1 [Compound 126h, 2-(2-((4-(3-(aminomethyl)phenyl)-1-(cyclopropylmethyl)-1H-indazol-6-yl)methoxy)phenyl)acetic acid]	< 1
NCc1cccc(-c2cc(COc3ccccc3CC(=O)O)cc3c2cnn3CC2CC2)c1F [Compound 127b, 2-(2-((4-(3-(aminomethyl)-2-fluorophenyl)-1-(cyclopropylmethyl)-1H-indazol-6-yl)methoxy)phenyl)acetic acid]	< 1
Cn1ncc2c(-c3cccc(CN)c3F)cc(COc3ccccc3CC(=O)O)cc21 [Compound 128g, 2-(2-((4-(3-(aminomethyl)-2-fluorophenyl)-1-methyl-1H-indazol-6-yl)methoxy)phenyl)acetic acid]	< 1
Cn1cc2c(-c3cccc(CN)c3F)cc(COc3ccccc3CC(=O)O)cc2n1 [Compound 129e, 2-(2-((4-(3-(aminomethyl)-2-fluorophenyl)-2-methyl-2H-indazol-6-yl)methoxy)phenyl)acetic acid]	< 1
NCc1cccc(-c2cc(COc3ccc(C4CC4)cc3CC(=O)O)cc3ccoc23)c1 [Compound 130g, 2-(2-((7-(3-(aminomethyl)phenyl)benzofuran-5-yl)methoxy)-5-cyclopropylphenyl)acetic acid]	< 1
Cn1ncc2c(-c3cccc(CN)c3)cc(COc3ccccc3CC(=O)O)cc21 [Compound 131b, 2-(2-((4-(3-(aminomethyl)phenyl)-1-methyl-1H-indazol-6-yl)methoxy)phenyl)acetic acid]	< 1
COCc1cc2cc(COc3ccccc3CC(=O)O)cc(-c3ccnc(CN)c3)c2o1 [Compound 132b, 2-(2-((7-(2-(aminomethyl)pyridin-4-yl)-2-(methoxymethyl)benzofuran-5-yl)methoxy)phenyl)acetic acid]	< 1
Cn1ccc2c(-c3ccnc(CN)c3)cc(COc3ccccc3CC(=O)O)cc21 [Compound 133c, 2-(2-((4-(2-(aminomethyl)pyridin-4-yl)-1-methyl-1H-indol-6-yl)methoxy)phenyl)acetic acid]	< 1
NCc1cccc(-c2cc(COc3ccccc3CC(=O)O)nc3ccoc23)c1F [Compound 134b, 2-(2-((7-(3-(aminomethyl)-2-fluorophenyl)furo[3,2-b]pyridin-5-yl)methoxy)phenyl)acetic acid]	< 1
Cn1ncc2c(-c3ccnc(CN)c3)cc(COc3ccccc3CC(=O)O)cc21 [Compound 135c, 2-(2-((4-(2-(aminomethyl)pyridin-4-yl)-1-methyl-1H-indazol-6-yl)methoxy)phenyl)acetic acid]	< 1
NCc1cccc(-c2cc(COc3ccccc3CC(=O)O)c(F)c3ccoc23)c1 [Compound 136e, 2-(2-((7-(3-(aminomethyl)phenyl)-4-fluorobenzofuran-5-yl)methoxy)phenyl)acetic acid]	< 1
NCc1cccc(-c2cc(COc3ccccc3CC(=O)O)c(F)c3ccoc23)c1F [Compound 137b, 2-(2-((7-(3-(aminomethyl)-2-fluorophenyl)-4-fluorobenzofuran-5-yl)methoxy)phenyl)acetic acid]	< 1
CNCc1cc2cc(COc3ccccc3CC(=O)O)cc(-c3cccc(CN)c3)c2o1 [Compound 138f, 2-(2-((7-(3-(aminomethyl)phenyl)-2-((methylamino)methyl)benzofuran-5-yl)methoxy)phenyl)acetic acid]	< 1
